Results published in patent US20100286181A1, “PYRROLE DERIVATIVES WITH ANTIBACTERIAL ACTIVITY” (ASTRAZENECA AB, priority 2006, published 2010).

biological target: GyrB ATPase activity (E. coli GyrA, E. coli GyrB) (Escherichia coli, UniProt P0AES6); experiment: GyrB ATPase inhibition activity assay (ammonium molybdate/malachite green phosphate detection); type: biochemical; conditions: figure quoted may be an average of two or more results
Experimental: Compounds may be tested for inhibition of GyrB ATPase activity using an ammonium molybdate/malachite green-based phosphate detection assay (Lanzetta, P. A., L. J. Alvarez, P. S. Reinach, and O. A. Candia, 1979, 100: 95-97). Assays can be performed in multiwell plates in 100 μl reactions containing: 50 mM HEPES buffer pH 7.5, 75 mM ammonium acetate, 5.5 mM magnesium chloride, 0.5 mM ethylenediaminetetraacetic acid, 5% glycerol, 1 mM 1,4-Dithio-DL-threitol, 200 nM bovine serum albumin, 5 μg/ml sheared salmon sperm DNA, 2.5 nM E. coli GyrA, 2.5 nM E. coli GyrB, 250 μM ATP, and compound in dimethylsulfoxide. Reactions can be quenched with 150 μl of ammonium molybdate/malachite green detection reagent containing 1.2 mM malachite green hydrochloride, 8.5 mM ammonium molybdate tetrahydrate, and 1 M hydrochloric acid.
Compounds of the Examples could be expected to have IC50 values of <200 μg/ml in one or both assays described herein above. For Example the following results were obtained in a GyrB ATPase inhibition activity assay substantially similar to the above wherein the figure quoted may be an average of two or more results

| Compound | IC50 [nM] |
| --- | --- |
| COC(=O)c1sc(N2CCC(NC(=O)c3[nH]c(C)c(Cl)c3Cl)C3(C2)OCCCO3)nc1C(C)=O (stereo not shown) [Example 9, Methyl 4-acetyl-2-(11-{[(3,4-dichloro-5-methyl-1H-pyrrol-2-yl)carbonyl]amino}-1,5-dioxa-8-azaspiro[5.5]undec-8-yl)-1,3-thiazole-5-carboxylate] | 52.2 |
| COC(=O)c1cnc(N2CC[C@@H](NC(=O)c3[nH]c(C)c(Cl)c3Cl)[C@@H](n3ccnn3)C2)s1 [Example 70, Methyl 2-[(3S,4R)-4-{[(3,4-dichloro-5-methyl-1H-pyrrol-2-yl)carbonyl]amino}-3-(1H-1,2,3-triazol-1-yl)-1-piperidinyl]-1,3-thiazole-5-carboxylate] | 12.4 |
| CCOC(=O)c1sc(N2CCC(NC(=O)c3[nH]c(C)c(Cl)c3Cl)C3(C2)OCCO3)nc1C(=O)NCCOC (stereo not shown) [Example 5, Ethyl 2-(10-{[(3,4-dichloro-5-methyl-1H-pyrrol-2-yl)carbonyl]amino}-1,4-dioxa-7-azaspiro[4.5]dec-7-yl)-4-{[(2-methoxyethyl)amino]carbonyl}-1,3-thiazole-5-carboxylate] | 226 |
| COC1COC2(CN(c3ncc(C(=O)O)s3)CCC2NC(=O)c2[nH]c(C)c(Cl)c2Cl)OC1 [Example 53, 2-((rel-3S,6s,11R)-11-{[(3,4-Dichloro-5-methyl-1H-pyrrol-2-yl)carbonyl]amino}-3-methoxy-1,5-dioxa-8-azaspiro[5.5]undec-8-yl)-1,3-thiazole-5-carboxylic acid] | < 9.77 |
| CCOC(=O)c1sc(N2CC[C@H](NC(=O)c3[nH]c(C)c(Cl)c3Cl)[C@H](n3cncn3)C2)nc1C(=O)O (racemic) [Example 49, cis(±)2-[4-{[(3,4-Dichloro-5-methyl-1H-pyrrol-2-yl)carbonyl]amino}-3-(1H-1,2,4-triazol-1-yl)piperidin-1-yl]-5-(ethoxycarbonyl)-1,3-thiazole-4-carboxylic acid] | < 9.77 |
| COCn1ccnc1-c1nc(N2CCC(NC(=O)c3[nH]c(C)c(Cl)c3Cl)/C(=N/OC)C2)sc1C(=O)O (stereo not shown) [Example 28, 2-[(3E)-4-{[(3,4-Dichloro-5-methyl-1H-pyrrol-2-yl)carbonyl]amino}-3-(methoxyimino)piperidin-1-yl]-4-[1-(methoxymethyl)-1H-imidazol-2-yl]-1,3-thiazole-5-carboxylic acid] | < 9.77 |
| CNC(=O)c1nc(N2CCC(NC(=O)c3[nH]c(C)c(Cl)c3Cl)/C(=N/OC)C2)sc1C(=O)OC (stereo not shown) [Example 31, Methyl 2-[(3E)-4-{[(3,4-dichloro-5-methyl-1H-pyrrol-2-yl)carbonyl]amino}-3-(methoxyimino)piperidin-1-yl]-4-[(methylamino)carbonyl]-1,3-thiazole-5-carboxylate] | 49.4 |
| Cc1[nH]c(C(=O)N[C@H]2CCN(c3ncc(C(=O)O)s3)C[C@H]2N=[N+]=[N-])c(Cl)c1Cl (racemic) [Example 66, cis(±)-2-(3-Azido-4-{[(3,4-dichloro-5-methyl-1H-pyrrol-2-yl)carbonyl]amino}piperidin-1-yl)-1,3-thiazole-5-carboxylic acid] | < 9.77 |
| COCC(COC)NC(=O)c1nc(N2CC[C@@H](NC(=O)c3[nH]c(C)c(Cl)c3Cl)[C@@H](n3ccnn3)C2)sc1C(=O)O [Example 118] | < 9.77 |
| C=C1COC2(CN(c3ncc(C(=O)O)s3)CCC2NC(=O)c2[nH]c(C)c(Cl)c2Cl)OC1 (stereo not shown) [Example 56, 2-(11-{[(3,4-Dichloro-5-methyl-1H-pyrrol-2-yl)carbonyl]amino}-3-methylene-1,5-dioxa-8-azaspiro[5.5]undec-8-yl)-1,3-thiazole-5-carboxylic acid] | < 9.77 |
| CC(=O)c1nc(N2CCC(NC(=O)c3[nH]c(C)c(Cl)c3Cl)C3(C2)OCCO3)sc1C(=O)O (stereo not shown) [Example 12, 4-Acetyl-2-(10-{[(3,4-dichloro-5-methyl-1H-pyrrol-2-yl)carbonyl]amino}-1,4-dioxa-7-azaspiro[4.5]dec-7-yl)-1,3-thiazole-5-carboxylic acid] | < 83.1 |
| COC[C@H](C)NC(=O)c1nc(N2CC[C@H](NC(=O)c3[nH]c(C)c(Cl)c3Cl)[C@H](n3cncn3)C2)sc1C(=O)O (racemic) [Example 50, cis(±)2-[4-{[(3,4-Dichloro-5-methyl-1H-pyrrol-2-yl)carbonyl]amino}-3-(1H-1,2,4-triazol-1-yl)piperidin-1-yl]-4-({[(1S)-2-methoxy-1-methylethyl]amino}carbonyl)-1,3-thiazole-5-carboxylic acid] | < 9.77 |
| Cc1[nH]c(C(=O)N[C@H]2CCN(c3ncc(C(=O)O)s3)C[C@H]2n2ccnn2)c(Cl)c1Cl (racemic) [Example 119, cis(±)2-[4-{[(3,4-Dichloro-5-methyl-1H-pyrrol-2-yl)carbonyl]amino}-3-(1H-1,2,3-triazol-1-yl)piperidin-1-yl]-1,3-thiazole-5-carboxylic acid] | 12.3 |
| COC(=O)c1cnc(N2CC[C@H](NC(=O)c3[nH]c(C)c(Cl)c3Cl)[C@H](n3cc(C)nn3)C2)s1 (racemic) [Example 121, cis(±)Methyl 2-[4-{[(3,4-dichloro-5-methyl-1H-pyrrol-2-yl)carbonyl]amino}-3-(4-methyl-1H-1,2,3-triazol-1-yl)piperidin-1-yl]-1,3-thiazole-5-carboxylate] | 36.9 |
| Cc1cn([C@@H]2CN(c3ncc(C(=O)O)s3)CC[C@@H]2NC(=O)c2[nH]c(C)c(Cl)c2Cl)nn1 (racemic) [Example 122, cis(±)2-[4-{[(3,4-Dichloro-5-methyl-1H-pyrrol-2-yl)carbonyl]amino}-3-(4-methyl-1H-1,2,3-triazol-1-yl)piperidin-1-yl]-1,3-thiazole-5-carboxylic acid] | < 9.77 |
| CO/N=C1\CN(c2nc(-c3ncnn3C)c(C(=O)OC)s2)CCC1NC(=O)c1[nH]c(C)c(Cl)c1Cl (stereo not shown) [Example 34, Methyl 2-[(3E)-4-{[(3,4-dichloro-5-methyl-1H-pyrrol-2-yl)carbonyl]amino}-3-(methoxyimino)piperidin-1-yl]-4-(1-methyl-1H-1,2,4-triazol-5-yl)-1,3-thiazole-5-carboxylate] | 66.8 |
| CCOC(=O)c1sc(N2CC[C@@H](NC(=O)c3[nH]c(C)c(Cl)c3Cl)[C@@H](n3cc(C#N)nn3)C2)nc1C(=O)NCCOC [Example 92, Ethyl 2-[(3S,4R)-3-(4-cyano-1H-1,2,3-triazol-1-yl)-4-[(3,4-dichloro-5-methyl-1H-pyrrole-2-carbonyl)amino]-1-piperidinyl]-4-(2-methoxyethylcarbamoyl)-1,3-thiazole-5-carboxylate] | < 9.77 |
| COC(=O)c1cnc(N2CC[C@@H](NC(=O)c3[nH]c(C)c(Cl)c3Cl)[C@@H](n3cc(Cl)nn3)C2)s1 [Example 71, Methyl 2-[(3S,4R)-3-(4-chloro-1H-1,2,3-triazol-1-yl)-4-[(3,4-dichloro-5-methyl-1H-pyrrole-2-carbonyl)amino]-1-piperidinyl]-1,3-thiazole-5-carboxylate] | 40 |
| Cc1[nH]c(C(=O)N[C@@H]2CCN(c3nc4cccc(C(N)=O)c4s3)C[C@@H]2n2ccnn2)c(Cl)c1Cl [Example 82, 2-[(3S,4R)-4-{[(3,4-Dichloro-5-methyl-1H-pyrrol-2-yl)carbonyl]amino}-3-(1H-1,2,3-triazol-1-yl)piperidin-1-yl]-1,3-benzothiazole-7-carboxamide] | < 9.77 |
